Source: US12123010B2, “Plants having increased tolerance to herbicides” (BASF SE, priority 2017, dated 2024)
Values joined by “and” are separate entries in the source; they are usually repeats but may differ in a detail not shown here. Identical values can stand only once.

What was measured:
[1] = system: Variant PPO Enzyme F420M (Amaranthus PPO2); assay: biochemical; type: biochemical; conditions: variant F420M vs wild type
[2] = system: Variant PPO Enzyme R128A, F420M (Amaranthus PPO2); type: biochemical; conditions: variant R128A, F420M vs wild type
[3] = system: Transgenic T2 Arabidopsis plants and ARBTH WT MC24 non-transgenic; assay: Greenhouse post spray test, injury 14 DAT (Tables ii, iii); type: in vivo, Arabidopsis thaliana; conditions: for pest or weed control at 50 g/ha / pest or weed control at 100 g/ha / pest or weed control at 200 g/ha / pest or weed control at 1 g/ha / pest or weed control at 5 g/ha / pest or weed control at 10 g/ha / pest or weed control at 30 g/ha / pest or weed control at 80 g/ha: Arabidopsis thaliana, 336 h;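 for all read-outs here: value is percent injury to the sprayed plants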
[4] = system: Transgenic T2 Arabidopsis plants harboring PPO inhibitor tolerance trait; assay: Lab based germination assay in 48-well plates (Table i); type: in vivo, Arabidopsis thaliana; conditions: construct AMATU_PPO2_TP_hemG (Escherichia coli); in comparison to wild type plants
[5] = target: Wild Type PPO Enzyme (Amaranthus PPO2, SEQ ID NO: 1) (Amaranthus tuberculatus, UniProt Q0NZW9); assay: PPO enzyme assay (recombinant), wild type; type: biochemical
[6] = system: Transgenic T2 Corn plants harbouring PPO inhibitor tolerance trait and J553 non transgenic; assay: Corn Trial, post spray, injury score 14 DAT; type: in vivo
Method: Immature embryos are transformed according to the procedure outlined in Peng et al. (WO2006/136596). Plants are tested for the presence of the T-DNA by Taqman analysis with the target being the nos terminator which is present in all constructs. Healthy looking plants are sent to the greenhouse for hardening and subsequent spray testing. The plants are individually transplanted into MetroMix 360 soil in 4″ pots. Once in the greenhouse (day/night cycle of 27° C./21° C. with 14 hour day length supported by 600 W high pressure sodium lights), they are allowed to grow for 14 days. TO or T1 plants are sprayed with a treatment of the uracilpyridines as disclosed SUPRA and photosynthesis inhibitor diuron as negative control. Herbicide injury evaluations are taken at 7, 14 and 21 days after treatment. Herbicide injury evaluations are taken 2, 7, 14 and 21 days post-spray to look for injury to new growth points and overall plant health. The top survivors are transplanted into gallon pots filled with MetroMix 360 for seed production.
Transgenic T2 Corn plants harbouring PPO inhibitor tolerance trait, were sprayed post with the indicated amount of uracilpyridine+1% (v/v) MSO. Evaluation performed 14 Days After Treatment (DAT) and shown as injury (0-9) relative to non-transgenic treated plants.
Injury Scale: 0-9, 0=no injury, 9=maximum injury. Note: segregating lines.

[7] = system: Transgenic T2 or T3 Soybean plants harbouring PPO inhibitor tolerance trait; assay: Soybean Trial, post spray, injury score 14 DAT; type: in vivo
Method: Soybean cv Jake is transformed as previously described by Siminszky et al., Phytochem Rev. 5:445-458 (2006). After regeneration, transformants are transplanted to soil in small pots, placed in growth chambers (16 hr day/8 hr night; 25° C. day/23° C. night; 65% relative humidity; 130-150 microE m-2 s-1) and subsequently tested for the presence of the T-DNA via Taqman analysis. After a few weeks, healthy, transgenic positive, single copy events are transplanted to larger pots and allowed to grow in the growth chamber. An optimal shoot for cutting is about 3-4 inches tall, with at least two nodes present. Each cutting is taken from the original transformant (mother plant) and dipped into rooting hormone powder (indole-3-butyric acid, IBA). The cutting is then placed in oasis wedges inside a bio-dome. The mother plant is taken to maturity in the greenhouse and harvested for seed. Wild type cuttings are also taken simultaneously to serve as negative controls. The cuttings are kept in the bio-dome for 5-7 days and then transplanted to 3 inch pots and then acclimated in the growth chamber for two more days. Subsequently, the cuttings are transferred to the greenhouse, acclimated for approximately 4 days prior to spray. T0 or 2-week old T1 plants are sprayed with a treatment of the uracilpyridines as disclosed SUPRA and photosynthesis inhibitor diuron as negative control. Herbicide injury evaluations are taken at 2, 7, 14 and 21 days after treatment.
Transgenic T2 or T3 Soybean plants harbouring PPO inhibitor tolerance trait, were sprayed post with the indicated amount of uracilpyridine+1% (v/v) MSO. Evaluation performed 14 Days After Treatment (DAT) and shown as injury (0-9) relative to non-transgenic treated plants. Injury Scale: 0-9, 0=no imjury, 9=maximum injury. Note: segregating lines.

[8] = system: Variant PPO Enzyme R128A, F420V (Amaranthus PPO2); assay: biochemical; type: biochemical; conditions: variant R128A, F420V vs wild type
[9] = Table iii, ALOMY_PPO2_R137L_F438M (unnamed lines), 50 g ai/ha
[10] = Table iii, ALOMY_PPO2_R137L_F438M (unnamed lines), 100 g ai/ha

Wild Type PPO Enzyme (Amaranthus PPO2, SEQ ID NO: 1), sequence (Q0NZW9 1-534): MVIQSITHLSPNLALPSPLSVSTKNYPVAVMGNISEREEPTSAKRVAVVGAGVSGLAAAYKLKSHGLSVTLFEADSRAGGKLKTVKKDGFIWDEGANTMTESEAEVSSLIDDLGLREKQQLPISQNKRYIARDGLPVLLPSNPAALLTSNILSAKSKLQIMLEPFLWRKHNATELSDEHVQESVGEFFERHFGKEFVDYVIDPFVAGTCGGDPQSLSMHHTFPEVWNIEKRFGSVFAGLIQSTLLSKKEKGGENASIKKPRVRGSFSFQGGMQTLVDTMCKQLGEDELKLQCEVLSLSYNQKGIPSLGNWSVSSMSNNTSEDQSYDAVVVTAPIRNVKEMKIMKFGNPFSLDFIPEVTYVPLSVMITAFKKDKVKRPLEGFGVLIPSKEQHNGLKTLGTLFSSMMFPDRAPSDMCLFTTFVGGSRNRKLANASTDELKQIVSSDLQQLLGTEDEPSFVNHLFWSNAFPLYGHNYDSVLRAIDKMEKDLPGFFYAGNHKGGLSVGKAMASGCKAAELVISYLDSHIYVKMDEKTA

CCOC(=O)COc1ccccc1Oc1nc(-n2c(=O)cc(C(F)(F)F)n(C)c2=O)c(F)cc1Cl [Uracilpyridine 4, ethyl 2-[2-[[3-chloro-5-fluoro-6-[3-methyl-2,6-dioxo-4-(trifluoromethyl)pyrimidin-1-yl]-2-pyridyl]oxy]phenoxy]acetate]
Tolerance Factor (R/S) [1]: 55 | Tolerance Factor (R/S) [2]: 401 | pest or weed control at 50 g/ha ([3]; Table ii, ALOMY_PPO2_R137L_F438V event F, 50 g ai/ha): 8% | pest or weed control at 100 g/ha ([3]; Table ii, ALOMY_PPO2_R137L_F438V event F, 100 g ai/ha): 20% | pest or weed control at 200 g/ha ([3]; Table ii, ALOMY_PPO2_R137L_F438V event F, 200 g ai/ha): 20% | pest or weed control at 50 g/ha ([3]; Table ii, ALOMY_PPO2_R137L_F438V event G, 50 g ai/ha): 8% | pest or weed control at 100 g/ha ([3]; Table ii, ALOMY_PPO2_R137L_F438V event G, 100 g ai/ha): 15% | pest or weed control at 200 g/ha ([3]; Table ii, ALOMY_PPO2_R137L_F438V event G, 200 g ai/ha): 8% | pest or weed control at 50 g/ha ([3]; Table ii, ALOMY_PPO2_TP_AMATU_PPO2_R128M_F420I event R, 50 g ai/ha): 40% | pest or weed control at 100 g/ha ([3]; Table ii, ALOMY_PPO2_TP_AMATU_PPO2_R128M_F420I event R, 100 g ai/ha): 60% | pest or weed control at 200 g/ha ([3]; Table ii, ALOMY_PPO2_TP_AMATU_PPO2_R128M_F420I event R, 200 g ai/ha): 80% | pest or weed control at 50 g/ha ([3]; Table ii, AMATU_PPO2_R128A_F420M event Q, 50 g ai/ha): 55% | pest or weed control at 100 g/ha ([3]; Table ii, AMATU_PPO2_R128A_F420M event Q, 100 g ai/ha): 60% | pest or weed control at 200 g/ha ([3]; Table ii, AMATU_PPO2_R128A_F420M event Q, 200 g ai/ha): 60% | pest or weed control at 50 g/ha ([3]; Table ii, AMATU_PPO2_R128M_F420I event K, 50 g ai/ha): 30% | pest or weed control at 100 g/ha ([3]; Table ii, AMATU_PPO2_R128M_F420I event K, 100 g ai/ha): 58% | pest or weed control at 200 g/ha ([3]; Table ii, AMATU_PPO2_R128M_F420I event K, 200 g ai/ha): 73% | pest or weed control at 50 g/ha ([3]; Table ii, AMATU_PPO2_TP_hemG event R, 50 g ai/ha): 30% | pest or weed control at 100 g/ha ([3]; Table ii, AMATU_PPO2_TP_hemG event R, 100 g ai/ha): 38% | pest or weed control at 200 g/ha ([3]; Table ii, AMATU_PPO2_TP_hemG event R, 200 g ai/ha): 65% | pest or weed control at 1 g/ha ([3]; Table ii, AMATU_PPO2_WT event Q, 1 g ai/ha): 25% | pest or weed control at 5 g/ha ([3]; Table ii, AMATU_PPO2_WT event Q, 5 g ai/ha): 88% | pest or weed control at 10 g/ha ([3]; Table ii, AMATU_PPO2_WT event Q, 10 g ai/ha): 100% | pest or weed control at 30 g/ha ([3]; Table ii, AMATU_PPO2_WT event Q, 30 g ai/ha): 100% | pest or weed control at 1 g/ha ([3]; Table ii, ARBTH WT MC24 non-transgenic, 1 g ai/ha + 1% MSO): 100% | pest or weed control at 5 g/ha ([3]; Table ii, ARBTH WT MC24 non-transgenic, 5 g ai/ha + 1% MSO): 100% | pest or weed control at 10 g/ha ([3]; Table ii, ARBTH WT MC24 non-transgenic, 10 g ai/ha + 1% MSO): 100% | pest or weed control at 30 g/ha ([3]; Table ii, ARBTH WT MC24 non-transgenic, 30 g ai/ha + 1% MSO): 100% | pest or weed control at 50 g/ha ([3]; Table ii, ARBTH WT MC24 non-transgenic, 50 g ai/ha + 1% MSO): 100% | pest or weed control at 80 g/ha ([3]; Table ii, ARBTH WT MC24 non-transgenic, 80 g ai/ha + 1% MSO): 100% | pest or weed control at 100 g/ha ([3]; Table ii, ARBTH WT MC24 non-transgenic, 100 g ai/ha + 1% MSO): 100% | pest or weed control at 200 g/ha ([3]; Table ii, ARBTH WT MC24 non-transgenic, 200 g ai/ha + 1% MSO): 100% | pest or weed control at 5 g/ha ([3]; Table ii, ARBTH_PPO1_S305L_Y426M event O, 5 g ai/ha): 0% | pest or weed control at 10 g/ha ([3]; Table ii, ARBTH_PPO1_S305L_Y426M event O, 10 g ai/ha): 0% | pest or weed control at 30 g/ha ([3]; Table ii, ARBTH_PPO1_S305L_Y426M event O, 30 g ai/ha): 0% | pest or weed control at 80 g/ha ([3]; Table ii, ARBTH_PPO1_S305L_Y426M event O, 80 g ai/ha): 95% | pest or weed control at 1 g/ha ([3]; Table ii, ARBTH_PPO1_WT event Q, 1 g ai/ha): 33% | pest or weed control at 5 g/ha ([3]; Table ii, ARBTH_PPO1_WT event Q, 5 g ai/ha): 99% | pest or weed control at 10 g/ha ([3]; Table ii, ARBTH_PPO1_WT event Q, 10 g ai/ha): 100% | pest or weed control at 30 g/ha ([3]; Table ii, ARBTH_PPO1_WT event Q, 30 g ai/ha): 100% | pest or weed control at 50 g/ha [3, 9]: 0% | pest or weed control at 100 g/ha [3, 10]: 0% | pest or weed control at 50 g/ha ([3]; Table iii, AMATU_PPO2_L397Q_F420V (unnamed lines), 50 g ai/ha): 60% | pest or weed control at 100 g/ha ([3]; Table iii, AMATU_PPO2_L397Q_F420V (unnamed lines), 100 g ai/ha): 80% | pest or weed control at 100 g/ha ([3]; Table iii, AMATU_PPO2_R128A_F420I (unnamed lines), 100 g ai/ha): 55% | pest or weed control at 50 g/ha ([3]; Table iii, AMATU_PPO2_R128A_F420V (unnamed lines), 50 g ai/ha): 75% | pest or weed control at 50 g/ha ([3]; Table iii, ARBTH WT MC 24 (non-transgenic), 50 g ai/ha + 1% MSO): 100% | pest or weed control at 100 g/ha ([3]; Table iii, ARBTH WT MC 24 (non-transgenic), 100 g ai/ha + 1% MSO): 100% | injury (%) [3, 9]: 0% | injury (%) [3, 10]: 0% | Tolerance Factor [4]: 810000 | IC50 [5]: 173 pM | injury (0-9) ([6]; 25 g/ha + 1% MSO): 7 | injury (0-9) ([6]; 50 g/ha + 1% MSO): 7 | injury (0-9) ([7]; L397E, F420M Event 2, 25 g/ha + 1% (v/v) MSO): 0 (No Injury) | injury (0-9) ([7]; L397E, F420M Event 2, 50 g/ha + 1% (v/v) MSO): 0 (No Injury) | injury (0-9) ([7]; L397E, F420M Event 2, 100 g/ha + 1% (v/v) MSO): 0 (No Injury) | injury (0-9) ([7]; L397E, F420V Event 1, 25 g/ha + 1% (v/v) MSO): 0 (No Injury) | injury (0-9) ([7]; L397E, F420V Event 1, 50 g/ha + 1% (v/v) MSO): 0 (No Injury) | injury (0-9) ([7]; L397E, F420V Event 1, 100 g/ha + 1% (v/v) MSO): 0 (No Injury) | injury (0-9) ([7]; L397Q, F420M Event 3, 25 g/ha + 1% (v/v) MSO): 0 (No Injury) | injury (0-9) ([7]; L397Q, F420M Event 3, 50 g/ha + 1% (v/v) MSO): 3 | injury (0-9) ([7]; L397Q, F420M Event 3, 100 g/ha + 1% (v/v) MSO): 3 and 4 | Tolerance Factor (R/S) [8]: 1718
